Source: patent US6242494A, “Substituted β-amino acid inhibitors of methionine aminopeptidase-2” (Abbott Laboratories, priority 1999, dated 2001)
Where a name gives a salt, the structure may show the parent alone.

Legend:
endothelial cell cycle = details: late G1 phase; result in words; cited from earlier work
MetAP2 = details: result in words; cited from earlier work
angiogenesis = details: cited from earlier work; for inhibition of angiogenesis: result in words
[1] = system: type 2 methionine aminopeptidase, MetAP2; details: result in words; cited from earlier work
[2] = biological target: T1, methionine aminopeptidase-2 (MetAP2) (Homo sapiens, UniProt P50579); test: Inhibition of MetAP2 enzyme activity (96-well, Met-Ala-Ser substrate, L-amino acid oxidase/peroxidase/ortho-dianisidine, 450 nm); format: biochemical; details: IC50, recombinant MetAP2 4 μg/mL, pH 7.4, Met-Ala-Ser substrate, 20 minutes
T1 construct: made in house; host or cells: insect cells, baculovirus system (secreted, purified from culture supernatant)
T1 sequence (P50579 whole entry): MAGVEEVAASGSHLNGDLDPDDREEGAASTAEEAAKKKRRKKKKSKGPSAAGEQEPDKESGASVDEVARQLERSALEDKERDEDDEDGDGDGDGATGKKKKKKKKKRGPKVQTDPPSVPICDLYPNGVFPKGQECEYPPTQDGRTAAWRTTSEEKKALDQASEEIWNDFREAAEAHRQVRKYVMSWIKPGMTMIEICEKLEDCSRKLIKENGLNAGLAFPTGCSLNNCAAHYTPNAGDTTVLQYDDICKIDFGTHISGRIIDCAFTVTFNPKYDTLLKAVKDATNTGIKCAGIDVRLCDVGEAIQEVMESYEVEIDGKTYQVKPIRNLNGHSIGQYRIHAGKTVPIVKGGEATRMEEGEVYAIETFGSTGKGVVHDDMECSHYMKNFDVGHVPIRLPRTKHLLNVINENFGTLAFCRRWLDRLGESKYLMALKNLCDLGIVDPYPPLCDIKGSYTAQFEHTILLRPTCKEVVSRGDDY

Row | SMILES | IC50 [2] [µM] | other results
1 | CO[C@@H]1[C@H](OC(=O)/C=C/C=C/C=C/C=C/C(=O)O)CC[C@]2(CO2)[C@H]1[C@@]1(C)O[C@@H]1CC=C(C)C [fumagillin] |  | inhibition of neovascularization by arresting the endothelial cell cycle (endothelial cell cycle): effective in inhibiting neovacularization by arresting the endothelial cell cycle in the late G1 phase; mode of MetAP2 inhibition (MetAP2): irreversible inhibitors; inhibition of angiogenesis (angiogenesis): potent inhibitors of angiogenesis
2 | CO[C@@H]1[C@H](OC(=O)NC(=O)CCl)CC[C@]2(CO2)[C@H]1[C@@]1(C)O[C@@H]1CC=C(C)C [TNP-470, O-(chloroacetylcarbamoyl)fumagillol] |  | binding to MetAP2 [1]: bind to a common bifunctional protein, type 2 methionine aminopeptidase, MetAP2; inhibition of neovascularization by arresting the endothelial cell cycle (endothelial cell cycle): effective in inhibiting neovacularization by arresting the endothelial cell cycle in the late G1 phase; mode of MetAP2 inhibition (MetAP2): irreversible inhibitors; potency as angiogenesis inhibitor relative to natural precursor fumagillin (angiogenesis; more potent than fumagillin): 50 fold; inhibition of angiogenesis (angiogenesis): potent inhibitors of angiogenesis
3 | CCCCCC(C)NC(=O)C(O)[C@H](N)CC1CCCCC1 (mixture of isomers) [Example 212, (2RS,3R)-3-amino-4-cyclohexyl-2-hydroxy-N-(1-methylhexyl)butanamide Hydrochloride] | 1.7 | 
4 | N[C@H](CC1CCCCC1)C(O)C(=O)NCc1ccccc1C(F)(F)F (mixture of isomers) [Example 238, (2RS,3R)-3-amino-4-cyclohexyl-2-hydroxy-N-(2-(trifluoromethyl)benzyl)butanamide] | 2.7 | 
5 | N[C@H](CC1CCCCC1)C(O)C(=O)Nc1cccc(OC(F)(F)F)c1 (mixture of isomers) [Example 170, (2RS,3R)-3-amino-4-cyclohexyl-2-hydroxy-N-(3-(trifluoromethoxy)phenyl)butanamide hydrochloride] | 1 | 
6 | CCOc1ccc(OCC)c(NC(=O)C(O)[C@H](N)CC2CCCCC2)c1 (mixture of isomers) [Example 181, (2RS,3R)-3-amino-4-cyclohexyl-N-(2,5-diethoxyphenyl)-2-hydroxybutanamide hydrochloride] | 9.8 | 
7 | N[C@H](CC1CCCCC1)C(O)C(=O)Nc1ccccc1Oc1ccccc1 (mixture of isomers) [Example 183, (2RS,3R)-3-amino-4-cyclohexyl-2-hydroxy-N-(2-phenoxyphenyl)butanamide hydrochloride] | 8.7 | 
8 | Cc1cc(I)ccc1NC(=O)C(O)[C@H](N)CC1CCCCC1 (mixture of isomers) [Example 173, (2RS,3R)-3-amino-4-cyclohexyl-2hydroxy-N-(4-iodo-2-methylphenyl)butanamide hydrochloride] | 0.58 | 
9 | C[C@H](NC(=O)C(O)[C@H](N)CC1CCCCC1)C(=O)NCc1nc2ccccc2[nH]1 (stereo partly drawn) [Example 67, ((2RS,3R)-3-amino-2-hydroxy-4-cyclohexyl)butanoyl-L-alanyl-(2-benzimidazolemethyl)amide hydrochloride] | 13 | 
10 | CSCC[C@@H](N)C(O)C(=O)NCCc1ccccc1 (stereo partly drawn) [Example 5, (2RS,3R)-N-((2-phenylethyl)-3-amino-2-hydroxy-5-(methylthio)pentanamide hydrochloride] | 2.6 | 
11 | COc1cc(Cl)c(C)cc1NC(=O)C(O)[C@H](N)CC1CCCCC1 (mixture of isomers) [Example 176, (2RS,3R)-3-amino-N-(4-chloro-2-methoxy-5-methylphenyl)-4-cyclohexyl-2-hydroxybutanamide hydrochloride] | 3.4 | 
12 | CCOC(=O)CCNC(=O)C(O)[C@H](N)CC1CCCCC1 (stereo partly drawn) [Example 24, (2RS,3R)-N-(2-(carboethoxy)ethyl)-3-amino-2-hydroxy-4-cyclohexyl-butanamidehydrochloride] | 1 | 
13 | N[C@H](CC1CCCCC1)C(O)C(=O)NCCCc1ccccc1 (mixture of isomers) [Example 109, (2RS,3R)-3-Amino-4-cyclohexyl-2-hydroxy-N-(3-phenylpropyl)butanamide Hydrochloride] | 1.7 | 
14 | CCOC(=O)[C@H](CO)NC(=O)C(O)[C@H](N)CCSCC (stereo partly drawn) [Example 36, (2RS,3R)-N-((1-(2-hydroxy)-1-ethoxycarboxyethyl) 3-amino-2-hydroxy-4-ethylthio)pentanamide hydrochloride] | 0.14 | 
15 | COc1ccc(S(=O)(=O)NCCCCNC(=O)C(O)[C@H](N)CC2CCCCC2)cc1OC (mixture of isomers) [Example 85, (2RS,3R)-3-amino-4-cyclohexyl-N-(4-(((3,4-dimethoxyphenyl)sulfonyl)amino)butyl)-2-hydroxybutanamide hydrochloride] | 3.2 | 
16 | N[C@H](CC1CCCCC1)C(O)C(=O)NCc1ccc(Br)cc1 (mixture of isomers) [Example 190, (2RS,3R)-3-amino-N-(4-bromobenzyl)-4-cyclohexyl-2-hydroxybutanamide hydrochloride] | 1.3 | 
17 | Cc1ccc(S(=O)(=O)NCCNC(=O)C(O)[C@H](N)CC2CCCCC2)cc1 (stereo partly drawn) [Example 81, (2RS,3R)-3-amino-2-hydroxy-4-cyclohexyl)butanoyl-(2-4-toluenesulfonylaminoethyl)amide hydrochloride] | 1.8 | 
18 | COc1cc(CCNC(=O)C(O)[C@H](N)CC2CCCCC2)ccc1O (stereo partly drawn) [Example 59] | 1.5 | 
19 | N[C@H](CC1CCCCC1)C(O)C(=O)NCCC(c1ccccc1)c1ccccc1 (mixture of isomers) [Example 216, (2RS,3R)-3-amino-4-cyclohexyl-N-(3,3-diphenylpropyl)-2-hydroxybutanamide Hydrochloride] | 1.8 | 
20 | N[C@H](CC1CCCCC1)C(O)C(=O)NCc1cccc(C(F)(F)F)c1 (stereo partly drawn) [Example 157] | 1.6 | 
21 | CSCC[C@@H](N)C(O)C(=O)O (mixture of isomers) [Example 18, (2RS,3R)-3-amino-2-hydroxy-5-(methylthio)pentanoic acid] | 0.15 | 
22 | CCOC(=O)C1CCN(C(=O)[C@H](C)NC(=O)C(O)[C@H](N)CC2CCCCC2)CC1 (stereo partly drawn) [Example 63, ((2RS,3R)-3-amino-2-hydroxy-4-cyclohexyl)butanoyl-L-alanyl-(ethylisonipecotate)amide hydrochloride] | 20 | 
23 | CC(C)(C)c1ccc(NC(=O)C(O)[C@H](N)CC2CCCCC2)cc1 (stereo partly drawn) [Example 150] | 3.1 | 
24 | N[C@H](CC1CCCCC1)C(O)C(=O)Nc1ccc(C(F)(F)F)cc1 (mixture of isomers) [Example 152, (2RS,3R)-3-amino-4-cyclohexyl-2-hydroxy-N-(4-(trifluoromethyl)phenyl)butanamide] | 2.4 | 
